The values below are quoted from earlier work in patent US20210008081A1, “ORAL LIQUID FORMULATIONS OF ABIRATERONE” (LEIUTIS PHARMACEUTICALS PVT, LTD, priority 2018, published 2021).

`CC(=O)O[C@H]1CC[C@@]2(C)C(=CC[C@@H]3[C@@H]2CC[C@]2(C)C(c4cccnc4)=CC[C@@H]32)C1` [Abiraterone acetate]: the “Solubility in organic solvents” value is “sparingly soluble to freely soluble” and the Solubility in water result is on record as “practically insoluble”. Besides, the “Biopharmaceutical classification system class” value (low solubility low permeability) was “class IV”. Besides, the “Solubility in aqueous media” value (over a wide range of pH) is “practically insoluble”.
